Data set [1] can be described thus: Solubility of the AmB derivatives. Format: physicochemical. Conditions: 5% glucose solution, ambient temperature, up to saturation; read-out: solubility (soluble up to a concentration of). As to the method:
C.2. Solubility of the AmB derivatives according to the present invention
AmB or the derivatives obtained are dissolved at ambient temperature in a 5% glucose solution up to saturation.

Data set [2] in a line: Toxicity on nucleated cells, mice thymocytes. Type of data set: cell-based. Conditions: mouse, thymocytes, 1 hour 30, trypan blue, read-out: LD 50 (concentration leading to a mortality of 50%).
In data set [3] the test system is PBL. The data set is described as follows: Toxicity on nucleated cells, human PBL. Type of data set: cell-based. Conditions: human PBL, 1 hour 30, trypan blue; 90 min; read-out: LD 50 (concentration leading to a mortality of 50%). As to the method: (§1) B.2: Study of the toxicity on nucleated cells
(§2) The solutions of the amphotericine B derivatives are prepared similarly to those mentioned in paragraph B.1.
(§3) The cells are prepared by placing 20 ml of blood diluted to 1/2 with 0.9% NaCl into a tube together with 10 ml of Ficoll-hypaque, and the mixture is centrifuged at 2000 rpm for 30 minutes. The cell nuclei are recovered and washed twice with PBS buffer containing 5% of foetal calf serum.
(§4) The cells are prepared by suspending 1.14×10^6 cells/ml in RPMI 1640 containing 2.5% of foetal calf serum and by filling each well with 150 μl. 50 μl of each dilution of the derivatives are added and also one control (5% glucose solution).
(§5) The cells are then incubated in a steam cabinet at a CO2 concentration of 5% for 1 hour 30 at 37° C. or at ambient temperature.
(§6) To evaluate the toxicity of the derivatives, a cell count in the presence of trypan blue is made, and the LD 50 (concentration of the derivative leading to a mortality of 50%) is calculated with respect to the control (5% glucose solution) for each concentration of each derivative.

In data set [4] the test system is red corpuscles. Briefly: Toxicity on red corpuscles (lysis), mice. Type of data set: cell-based. The settings on record: 37° C., 1 hour 30, 90 min, 90 min, read-out: LD 50 (dose which leads to lysis in 50% of the erythrocytes). As to the method:
(§7) B.1: Study of the toxicity on red corpuscles
(§8) All the solutions of the AmB derivatives according to the invention were prepared immediately before use by diluting 4 mg of substance in 100 μl of 5% glucose solution, and then, after 15 minutes protected from light, 100 μl of sterile distilled water are added, and the mixture is made up to stock solutions of 4 mg/ml with a 5% glucose solution. For comparative study of the effects of AmB, 4 mg of FUNGIZONE are diluted with 1 ml of 5% glucose.
(§9) The cells are prepared by placing 1 ml of a peripheral blood sample into a tube together with Ficollhypaque to remove the lymphocytes, and then centrifuging the mixture at 2000 rpm for 20 minutes. The remaining red corpuscles are recovered, washed once with 0.9% NaCl and then twice with 150 Mm KCl, 0.5 Mm tris-HCl, pH 7.4.
(§10) A 1.25% suspension is then prepared with 150 mM KCl solution, 0.5 mM tris-HCl, pH 7.4, and 150 μl thereof are distributed in wells along with 50 μl of each of the dilutions of the derivatives, plus a control well (5% glucose solution).
(§11) The cells are then incubated at 37° C. in a steam cabinet for 1 hour 30.
(§12) To evaluate the cell lysis, haemoglobin is essayed by removing 100 μl of the supernatant in each well and diluting the sample with 1 ml of distilled water.
(§13) The haemoglobin concentration is calculated by measuring the optical density at 540 nm and taking into account the absorption of the derivatives of amphotericine B.
(§14) LD 50 is the dose which leads to lysis in 50% of the erythrocytes (a control of 100% lysis is obtained with distilled water, and reference lysis of 0% is obtained with the 5% glucose solution).

Data set [5] concerns Aspergillus flavus. Briefly: Diffusion method in agar-agar medium (Sabouraud agar-agar). Type of data set: cell-based. Conditions: Sabouraud agar-agar, disc diameter 1 cm, 0.1 ml. As to the method:
(§15) A.2 : Study of the antibiotic efficiency of amphotericine B derivatives in agar-agar medium against Aspergillus
(§16) The antibiotic activity was tested by the diffusion method in agar-agar medium (Sabouraud agar-agar).
(§17) The efficiency of each molecule was determined by the size of the growth-inhibiting zone around a WHATMAN 3M paper disc impregnated with the antibiotic substance of a given concentration.
(§18) A suspension of Aspergillus spores in a broth was prepared, 0.2 ml of this suspension was used to inoculate at its surface an agar-agar medium which was solidified in such a manner that a homogeneous growth layer was obtained. After spreading, the WHATMAN 3M paper discs (diameter: 1 cm) were placed on the surface of the agar-agar, and then impregnated with 0.1 ml of the antibiotic substance at different concentrations.

The subject of data set [6] is Aspergillus fumigatus. Described as above. Format: cell-based. The settings on record: Sabouraud agar-agar, disc diameter 1 cm, 0.1 ml. As to the method:
as §15, §16, §17, §18

For data set [7], the system named is Pytirosporum orbiculare. The data set is described as follows: Growth inhibition in liquid medium (Sabouraud broth). Format: cell-based. The settings on record: Sabouraud broth, 28° C., 18 hours; read-out: IC 50 (growth-inhibiting concentration of 50%). On the procedure: (§19) A.1 : Study of the antibiotic efficiency of AmB derivatives in liquid medium against different yeasts
(§20) The antibiotic efficiency was tested by the growth inhibition method in liquid medium (Sabouraud broth) in the presence of different concentrations of the derivatives studied.
(§21) A yeast suspension was cultivated in a broth in such a manner that about 1×10^2 cell/ml were obtained.
(§22) The tubes containing the different concentrations of antifungal substance were inoculated with the same amount of yeast cells, and were then incubated at 28° C. for 18 hours with stirring. For each concentration of antifungal substance, two identical tubes were prepared.
(§23) The inhibition of fungal growth corresponding to the different concentrations was evaluated for each molecule by spectrophotometry at 620 nm and expressed in percent with respect to a reference solution without antifungal substance.

For data set [8], the system named is Candida albicans. The data set is described as above. Format: cell-based. The settings on record: Sabouraud broth, 28° C., 18 hours, read-out: IC 50 (growth-inhibiting concentration of 50%). On the procedure:
as §19, §20, §21, §22, §23

In data set [9] the test system is Saccharomyces cerevisiae. The description is as above. Format: cell-based. Conditions: Saccharomyces cerevisiae, 18 h, Sabouraud broth, 28° C., 18 hours; read-out: IC 50 (growth-inhibiting concentration of 50%). On the procedure: as §19, §20, §21, §22, §23
Data set [10] has as its system Cryptoccocus neoformans. The description is as above. The settings on record: Sabouraud broth, 28° C., 18 hours, read-out: IC 50 (growth-inhibiting concentration of 50%). Type of data set: cell-based. On the procedure: as §19, §20, §21, §22, §23
Data set [11] has as its system red corpuscles. Briefly: Toxicity on red corpuscles (lysis), human. Format: cell-based. Conditions: 37° C., 1 hour 30, 90 min, 90 min, read-out: LD 50 (dose which leads to lysis in 50% of the erythrocytes). As to the method:
as §7, §8, §9, §10, §11, §12, §13, §14

A short description of data set [12]: Toxicity on nucleated cells, X 63 mice lymphoma B. Type of data set: cell-based. The settings on record: mouse, x 63 lymphoma cells, 1 hour 30, trypan blue, read-out: LD 50 (concentration leading to a mortality of 50%).
Data set [13] has as its system DAUDI (human lymphoma B). The data set is described as follows: Toxicity on nucleated cells, DAUDI human lymphoma B. Type of data set: cell-based. The settings on record: 1 hour 30, trypan blue, 90 min, read-out: LD 50 (concentration leading to a mortality of 50%).
The nature of data set [14]: Toxicity on nucleated cells, human bone marrow. Format: cell-based. The settings on record: 1 hour 30, trypan blue, read-out: LD 50 (concentration leading to a mortality of 50%). On the procedure: as §1, §2, §3, §4, §5, §6
Data set [15] in a line: Toxicity on nucleated cells, human thymocytes. Format: cell-based. The settings on record: 1 hour 30, trypan blue, read-out: LD 50 (concentration leading to a mortality of 50%). As to the method:
as §1, §2, §3, §4, §5, §6

A short description of data set [16]: Toxicity on nucleated cells, mice T lymph gland cells. Format: cell-based. The settings on record: mouse, 1 hour 30, trypan blue, read-out: LD 50 (concentration leading to a mortality of 50%). As to the method: as §1, §2, §3, §4, §5, §6
Data set [17] has as its system X 63 (mice lymphoma B). The data set is described as follows: Toxicity on nucleated cells, X 63 mice lymphoma B. Type of data set: cell-based. Conditions: 1 hour 30, trypan blue, 90 min, read-out: LD 50 (concentration leading to a mortality of 50%).
Data set [18] is described as follows: Toxicity on nucleated cells, mice B lymph gland cells. Format: cell-based. Conditions: mouse, 1 hour 30, trypan blue, read-out: LD 50 (concentration leading to a mortality of 50%). As to the method:
as §1, §2, §3, §4, §5, §6

Values after ≈ are worked out from the molar mass of the structure shown. Like-named read-outs stand apart in the source and are kept apart here.

As for `C[C@@H]1[C@H](O)[C@@H](C)/C=C/C=C/C=C/C=C/C=C/C=C/C=C/[C@H](O[C@@H]2O[C@H](C)[C@@H](O)[C@H](NCC3(O)O[C@H](C(=O)O)[C@@H](O)[C@@H]3O)[C@@H]2O)C[C@@H]2O[C@](O)(C[C@@H](O)C[C@@H](O)[C@H](O)CC[C@@H](O)C[C@@H](O)CC(=O)O[C@H]1C)C[C@H](O)[C@H]2C(=O)O` (stereo partly drawn) [AmB 17, 1-amino-1-deoxy-D-arabinoglucuronyl-AmB], the solubility in data set [1] was determined as 20 mg/mL (≈ 18.2 mM).
Take `CC(=O)NC[C@H]1OC(O)(CN[C@@H]2[C@H](O)[C@H](O[C@H]3/C=C/C=C/C=C/C=C/C=C/C=C/C=C/[C@H](C)[C@@H](O)[C@@H](C)[C@H](C)OC(=O)C[C@H](O)C[C@H](O)CC[C@@H](O)[C@H](O)C[C@H](O)C[C@]4(O)C[C@H](O)[C@@H](C(=O)O)[C@H](C3)O4)O[C@H](C)[C@H]2O)[C@@H](O)[C@@H]1O` (some centres unmarked) [AmB 23 F, 6-deoxy-6-N-acetyl-1-deoxy-1-aminofructosyl-AmB]: the CC50 at 1.5 h is 3 µM in [2] and > 1000 µM in [12]. Also, the CC50 in [3] is 80 µM; in data set [13], > 1000 µM. Moreover, the HC50 was 12 µM in [4] and 50 µM in data set [11]. In [5] (Aspergillus flavus, read-out: concentration giving a growth inhibition of 1 cm around a disc in solid medium), the IC (1 cm inhibition zone) is 600 µM. Moreover, the “concentration giving a growth inhibition of 1 cm around a disc in solid medium” value in data set [6] is on record as 2 × 10^-4 molarity. The IC50 is 0.076 µM in [7], 0.4 µM in data set [8], 1.6 µM in data set [9] and 0.15 µM in data set [10] (18 h).
Consider `C[C@@H]1[C@H](O)[C@@H](C)/C=C/C=C/C=C/C=C/C=C/C=C/C=C/[C@H](O[C@@H]2O[C@H](C)[C@@H](O)[C@H](NCC3(O)O[C@H](C(=O)O)[C@@H](O)[C@@H]3O)[C@@H]2O)C[C@@H]2O[C@](O)(C[C@@H](O)C[C@@H](O)[C@H](O)CC[C@@H](O)C[C@@H](O)CC(=O)O[C@H]1C)C[C@H](O)[C@H]2C(=O)O` (stereo partly drawn) [AmB 17 F, 1-amino-1-deoxy-D-arabinoglucuronyl-AmB], for which the CC50 at 1.5 h in data set [2] was 8 µM; in [14] it was > 1000 µM; in data set [15] it was > 300 µM; in data set [16], 20 µM; in [18], 150 µM. The CC50 in data set [3], in data set [17] and in data set [13] was > 1000 µM each time. For the same compound, the HC50 in data set [4] stood at 30 µM; in data set [11], 200 µM. In addition, the “concentration giving a growth inhibition of 1 cm around a disc in solid medium” value in [5] and in data set [6] was 2 × 10^-4 molarity each time. In addition, the IC50 in data set [7] amounted to 0.09 µM; in data set [8] (Candida albicans, 18 h), 0.13 µM; in data set [9], 1.4 µM; in data set [10] it was 0.15 µM.

The record behind these values is patent US5314999A, “Derivatives of basic polyene macrolides and their preparation” (Laboratoires Mayoly-Spindler, priority 1989, dated 1994).
